Laboratory results reported in PMC6704710, “Preclinical evaluation of 3D185, a novel potent inhibitor of FGFR1/2/3 and CSF-1R, in FGFR-dependent and macrophage-dominant cancer models” (Journal of Experimental & Clinical Cancer Research : CR, 2019).

Tests used:
Assay in all cases: Eurofins kinase panel
Assay type in all cases: biochemical
Settings in all cases: read-out: Inhibition rate (%)
[1] = biological target: T1, MARK1(h) (Homo sapiens, UniProt Q9P0L2)
T1 construct: purchased Eurofins (KinaseProfiler)

[2] = biological target: T2, MYLK2(h) (Homo sapiens, UniProt Q9H1R3)
T2 construct: purchased Eurofins (KinaseProfiler)

[3] = biological target: T3, Fer(h) (Homo sapiens, UniProt P16591)
T3 construct: purchased Eurofins (KinaseProfiler)

[4] = biological target: T4, SAPK4(h) (Homo sapiens, UniProt O15264)
T4 construct: purchased Eurofins (KinaseProfiler)
T4 sequence (O15264 1-365): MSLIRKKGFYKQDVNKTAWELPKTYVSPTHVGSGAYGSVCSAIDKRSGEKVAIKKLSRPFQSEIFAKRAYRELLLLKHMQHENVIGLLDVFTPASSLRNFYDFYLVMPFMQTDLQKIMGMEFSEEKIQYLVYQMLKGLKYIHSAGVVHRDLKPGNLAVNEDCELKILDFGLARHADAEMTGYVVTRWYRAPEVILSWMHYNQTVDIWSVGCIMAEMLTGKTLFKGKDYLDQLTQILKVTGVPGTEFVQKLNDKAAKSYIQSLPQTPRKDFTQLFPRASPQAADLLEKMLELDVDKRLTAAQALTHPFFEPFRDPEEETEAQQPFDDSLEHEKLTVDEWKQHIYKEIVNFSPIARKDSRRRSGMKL

[5] = biological target: T5, MST1(h) (Homo sapiens, UniProt Q13043)
T5 construct: purchased Eurofins (KinaseProfiler)
T5 sequence (Q13043 1-487): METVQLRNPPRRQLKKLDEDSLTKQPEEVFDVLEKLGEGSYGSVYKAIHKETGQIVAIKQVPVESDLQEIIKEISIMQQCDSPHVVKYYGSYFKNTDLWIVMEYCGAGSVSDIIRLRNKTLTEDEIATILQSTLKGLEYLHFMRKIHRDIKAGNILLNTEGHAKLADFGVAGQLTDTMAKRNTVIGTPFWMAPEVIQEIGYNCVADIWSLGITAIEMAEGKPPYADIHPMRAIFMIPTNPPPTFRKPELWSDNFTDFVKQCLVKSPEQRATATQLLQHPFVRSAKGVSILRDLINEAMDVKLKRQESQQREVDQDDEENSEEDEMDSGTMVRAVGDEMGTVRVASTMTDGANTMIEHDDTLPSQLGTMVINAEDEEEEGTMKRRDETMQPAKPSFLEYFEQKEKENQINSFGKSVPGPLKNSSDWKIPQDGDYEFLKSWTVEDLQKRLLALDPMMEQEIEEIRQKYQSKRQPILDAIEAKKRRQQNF

[6] = biological target: T6, PKCζ(h) (Homo sapiens, UniProt Q05513)
T6 construct: purchased Eurofins (KinaseProfiler)
T6 sequence (Q05513 1-592): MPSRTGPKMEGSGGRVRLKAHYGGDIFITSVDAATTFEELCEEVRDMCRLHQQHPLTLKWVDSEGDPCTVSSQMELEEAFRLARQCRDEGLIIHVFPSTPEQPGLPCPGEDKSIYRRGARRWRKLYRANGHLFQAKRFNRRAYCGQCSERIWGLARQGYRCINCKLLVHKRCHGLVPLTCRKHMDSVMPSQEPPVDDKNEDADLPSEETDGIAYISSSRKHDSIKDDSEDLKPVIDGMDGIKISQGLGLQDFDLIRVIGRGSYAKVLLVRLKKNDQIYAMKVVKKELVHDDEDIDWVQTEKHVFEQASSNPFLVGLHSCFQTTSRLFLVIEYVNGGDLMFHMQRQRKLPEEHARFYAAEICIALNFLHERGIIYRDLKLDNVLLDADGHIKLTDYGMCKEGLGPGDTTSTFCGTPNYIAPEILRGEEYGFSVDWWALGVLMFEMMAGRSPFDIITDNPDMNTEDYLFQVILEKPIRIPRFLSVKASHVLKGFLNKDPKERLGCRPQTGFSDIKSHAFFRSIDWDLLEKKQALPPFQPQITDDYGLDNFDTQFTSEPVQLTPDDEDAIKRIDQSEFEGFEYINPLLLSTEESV

[7] = biological target: T7, Met(D1246N)(h) (Homo sapiens, UniProt P08581, D1228N)
T7 construct: purchased Eurofins (KinaseProfiler)

[8] = biological target: T8, Blk(h) (Homo sapiens, UniProt P51451)
T8 construct: purchased Eurofins (KinaseProfiler)

[9] = biological target: T9, IRE1(h) (Homo sapiens, UniProt O75460)
T9 construct: purchased Eurofins (KinaseProfiler)

[10] = biological target: T10, TRB2(h) (Homo sapiens, UniProt Q92519)
T10 construct: purchased Eurofins (KinaseProfiler)
T10 sequence (Q92519 1-343): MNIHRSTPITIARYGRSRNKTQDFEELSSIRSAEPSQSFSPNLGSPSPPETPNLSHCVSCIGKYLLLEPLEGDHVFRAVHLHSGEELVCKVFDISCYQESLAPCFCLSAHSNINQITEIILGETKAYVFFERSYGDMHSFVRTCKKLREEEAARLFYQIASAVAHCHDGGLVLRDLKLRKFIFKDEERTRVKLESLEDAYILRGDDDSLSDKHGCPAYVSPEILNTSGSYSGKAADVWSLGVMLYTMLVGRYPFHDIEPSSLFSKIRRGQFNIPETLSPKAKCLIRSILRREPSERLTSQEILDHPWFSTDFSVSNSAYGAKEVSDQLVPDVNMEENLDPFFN

[11] = biological target: T11, Plk1(h) (Homo sapiens, UniProt P53350)
T11 construct: purchased Eurofins (KinaseProfiler)
T11 sequence (P53350 whole entry): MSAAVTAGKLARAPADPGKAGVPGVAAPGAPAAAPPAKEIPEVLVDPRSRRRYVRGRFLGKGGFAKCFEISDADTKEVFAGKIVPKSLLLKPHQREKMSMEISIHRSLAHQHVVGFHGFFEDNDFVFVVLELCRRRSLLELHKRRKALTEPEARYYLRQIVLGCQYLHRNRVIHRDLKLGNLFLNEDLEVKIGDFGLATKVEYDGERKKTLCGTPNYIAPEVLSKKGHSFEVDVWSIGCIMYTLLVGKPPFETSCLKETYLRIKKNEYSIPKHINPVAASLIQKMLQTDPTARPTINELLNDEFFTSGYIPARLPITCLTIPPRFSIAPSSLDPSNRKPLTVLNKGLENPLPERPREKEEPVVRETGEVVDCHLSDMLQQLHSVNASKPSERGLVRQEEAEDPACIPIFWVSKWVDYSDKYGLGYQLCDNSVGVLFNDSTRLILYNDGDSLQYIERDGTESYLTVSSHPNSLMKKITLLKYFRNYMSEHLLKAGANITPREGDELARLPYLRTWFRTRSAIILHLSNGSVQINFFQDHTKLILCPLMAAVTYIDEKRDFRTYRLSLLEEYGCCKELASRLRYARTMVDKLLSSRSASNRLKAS

T2 sequence (Q9H1R3 whole entry): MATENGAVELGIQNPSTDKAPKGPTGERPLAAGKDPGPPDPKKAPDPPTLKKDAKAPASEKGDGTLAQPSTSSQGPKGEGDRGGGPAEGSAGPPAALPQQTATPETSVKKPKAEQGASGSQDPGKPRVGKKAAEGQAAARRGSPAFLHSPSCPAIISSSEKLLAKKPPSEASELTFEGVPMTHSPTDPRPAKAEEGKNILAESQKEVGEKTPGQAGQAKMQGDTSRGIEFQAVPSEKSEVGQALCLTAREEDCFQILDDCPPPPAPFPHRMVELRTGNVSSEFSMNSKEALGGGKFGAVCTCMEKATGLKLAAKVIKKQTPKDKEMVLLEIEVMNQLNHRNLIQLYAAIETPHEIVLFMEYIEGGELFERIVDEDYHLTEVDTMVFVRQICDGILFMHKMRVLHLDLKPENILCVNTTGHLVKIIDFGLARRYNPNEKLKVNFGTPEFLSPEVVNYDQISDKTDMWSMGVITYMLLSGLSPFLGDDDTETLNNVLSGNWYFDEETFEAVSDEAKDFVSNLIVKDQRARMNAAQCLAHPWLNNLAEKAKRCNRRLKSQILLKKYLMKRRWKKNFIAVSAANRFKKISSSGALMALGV
T7 sequence (P08581 956-1390 D1228N limits assumed): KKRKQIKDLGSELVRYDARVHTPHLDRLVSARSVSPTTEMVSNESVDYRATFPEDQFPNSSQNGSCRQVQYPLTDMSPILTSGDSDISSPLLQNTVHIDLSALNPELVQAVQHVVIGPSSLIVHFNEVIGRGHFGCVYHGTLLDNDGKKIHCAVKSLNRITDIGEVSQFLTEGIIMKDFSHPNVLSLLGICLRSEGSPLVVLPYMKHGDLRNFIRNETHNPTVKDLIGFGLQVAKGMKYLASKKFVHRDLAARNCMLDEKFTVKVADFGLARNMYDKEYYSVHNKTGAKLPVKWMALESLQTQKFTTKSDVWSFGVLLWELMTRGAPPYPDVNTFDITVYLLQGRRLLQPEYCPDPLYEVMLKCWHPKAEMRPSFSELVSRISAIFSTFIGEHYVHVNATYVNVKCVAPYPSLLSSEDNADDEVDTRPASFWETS
T9 sequence (O75460 19-977): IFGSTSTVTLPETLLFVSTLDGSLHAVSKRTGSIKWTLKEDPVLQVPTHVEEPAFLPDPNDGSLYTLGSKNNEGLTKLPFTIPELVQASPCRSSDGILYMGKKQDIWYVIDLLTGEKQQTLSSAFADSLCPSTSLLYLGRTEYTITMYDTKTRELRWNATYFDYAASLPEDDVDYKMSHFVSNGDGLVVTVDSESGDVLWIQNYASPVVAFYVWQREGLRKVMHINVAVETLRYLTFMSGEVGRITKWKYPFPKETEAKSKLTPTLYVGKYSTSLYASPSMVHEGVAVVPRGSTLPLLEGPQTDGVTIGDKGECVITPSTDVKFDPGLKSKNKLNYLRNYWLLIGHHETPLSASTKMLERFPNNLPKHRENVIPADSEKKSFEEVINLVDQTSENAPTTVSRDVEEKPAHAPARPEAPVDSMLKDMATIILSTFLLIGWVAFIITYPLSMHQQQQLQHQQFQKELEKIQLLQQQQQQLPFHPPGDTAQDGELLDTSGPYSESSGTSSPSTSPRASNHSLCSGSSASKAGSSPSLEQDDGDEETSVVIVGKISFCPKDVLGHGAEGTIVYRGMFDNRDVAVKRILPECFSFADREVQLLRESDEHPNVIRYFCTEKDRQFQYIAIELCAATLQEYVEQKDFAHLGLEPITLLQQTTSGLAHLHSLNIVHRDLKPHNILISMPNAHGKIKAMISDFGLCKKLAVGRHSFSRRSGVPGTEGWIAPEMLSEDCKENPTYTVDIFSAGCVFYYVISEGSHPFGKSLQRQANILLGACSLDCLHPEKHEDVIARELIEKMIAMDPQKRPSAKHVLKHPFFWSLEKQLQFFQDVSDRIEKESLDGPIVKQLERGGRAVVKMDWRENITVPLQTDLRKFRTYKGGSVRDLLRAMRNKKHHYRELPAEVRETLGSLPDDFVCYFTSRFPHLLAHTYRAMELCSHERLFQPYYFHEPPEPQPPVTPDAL
T8 sequence (P51451 whole entry): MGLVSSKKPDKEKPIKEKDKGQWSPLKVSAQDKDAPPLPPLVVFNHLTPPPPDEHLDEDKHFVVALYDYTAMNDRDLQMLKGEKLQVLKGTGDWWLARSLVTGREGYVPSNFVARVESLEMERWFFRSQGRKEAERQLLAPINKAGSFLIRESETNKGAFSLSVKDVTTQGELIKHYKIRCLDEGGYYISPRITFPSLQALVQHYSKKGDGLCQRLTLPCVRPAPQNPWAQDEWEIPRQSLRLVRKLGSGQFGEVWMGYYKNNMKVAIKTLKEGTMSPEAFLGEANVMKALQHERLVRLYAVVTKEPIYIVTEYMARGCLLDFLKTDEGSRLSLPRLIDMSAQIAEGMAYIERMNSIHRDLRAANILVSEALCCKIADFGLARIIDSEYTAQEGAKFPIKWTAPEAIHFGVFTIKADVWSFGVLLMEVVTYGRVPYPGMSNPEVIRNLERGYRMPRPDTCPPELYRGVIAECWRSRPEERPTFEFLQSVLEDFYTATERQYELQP
T3 sequence (P16591 whole entry): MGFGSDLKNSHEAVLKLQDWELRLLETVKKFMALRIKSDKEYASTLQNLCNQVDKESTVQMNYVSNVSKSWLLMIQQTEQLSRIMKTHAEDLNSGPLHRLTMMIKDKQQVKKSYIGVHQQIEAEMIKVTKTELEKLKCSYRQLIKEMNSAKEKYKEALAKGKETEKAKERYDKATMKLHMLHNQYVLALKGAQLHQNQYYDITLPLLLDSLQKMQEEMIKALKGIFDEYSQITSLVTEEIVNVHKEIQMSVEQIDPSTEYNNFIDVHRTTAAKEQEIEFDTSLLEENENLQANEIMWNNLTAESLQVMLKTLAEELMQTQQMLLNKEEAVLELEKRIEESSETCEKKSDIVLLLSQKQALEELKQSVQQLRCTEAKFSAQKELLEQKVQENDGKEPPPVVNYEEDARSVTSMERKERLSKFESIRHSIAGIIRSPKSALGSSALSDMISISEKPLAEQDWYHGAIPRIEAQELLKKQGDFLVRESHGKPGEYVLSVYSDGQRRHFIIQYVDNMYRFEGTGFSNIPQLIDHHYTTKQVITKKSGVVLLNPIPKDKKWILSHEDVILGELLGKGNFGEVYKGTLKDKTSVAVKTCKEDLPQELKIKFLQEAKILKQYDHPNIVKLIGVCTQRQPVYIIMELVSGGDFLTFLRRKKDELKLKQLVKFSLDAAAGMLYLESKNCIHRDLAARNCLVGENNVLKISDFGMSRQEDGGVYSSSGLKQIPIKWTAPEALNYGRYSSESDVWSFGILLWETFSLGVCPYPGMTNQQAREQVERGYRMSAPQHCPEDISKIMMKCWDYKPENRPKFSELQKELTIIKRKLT
T1 sequence (Q9P0L2 whole entry): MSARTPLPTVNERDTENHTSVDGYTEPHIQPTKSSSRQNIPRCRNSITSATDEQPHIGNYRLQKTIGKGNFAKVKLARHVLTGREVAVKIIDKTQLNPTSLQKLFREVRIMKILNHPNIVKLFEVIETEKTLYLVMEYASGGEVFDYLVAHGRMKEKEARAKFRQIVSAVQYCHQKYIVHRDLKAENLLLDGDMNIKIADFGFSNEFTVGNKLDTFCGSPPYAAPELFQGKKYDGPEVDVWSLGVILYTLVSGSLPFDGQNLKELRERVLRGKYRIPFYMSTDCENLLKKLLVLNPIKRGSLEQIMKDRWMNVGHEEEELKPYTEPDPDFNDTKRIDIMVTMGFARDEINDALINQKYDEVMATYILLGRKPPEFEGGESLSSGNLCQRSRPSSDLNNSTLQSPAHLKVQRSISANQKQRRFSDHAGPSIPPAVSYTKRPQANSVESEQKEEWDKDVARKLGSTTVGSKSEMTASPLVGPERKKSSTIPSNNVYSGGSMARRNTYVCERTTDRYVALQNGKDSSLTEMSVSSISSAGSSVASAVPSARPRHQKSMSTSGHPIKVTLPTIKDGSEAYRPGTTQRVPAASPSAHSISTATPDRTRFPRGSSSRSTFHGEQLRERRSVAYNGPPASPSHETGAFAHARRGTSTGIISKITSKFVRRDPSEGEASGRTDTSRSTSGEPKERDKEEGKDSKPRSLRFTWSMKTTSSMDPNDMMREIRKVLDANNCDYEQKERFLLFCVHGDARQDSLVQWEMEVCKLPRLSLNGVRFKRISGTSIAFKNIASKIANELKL

COc1cc(OC)c(Cl)c(-c2ccc3c(NC(=O)c4ccc(N5CCNC(C)(C)C5)cc4)n[nH]c3n2)c1Cl [3D185]
inhibition at 0.01 µM ([1]; 10 nM): -11%
inhibition at 0.1 µM ([1]; 100 nM): -13%
inhibition at 1 µM ([1]; 1000 nM): -25%
inhibition at 0.01 µM ([2]; 10 nM): 7%
inhibition at 0.1 µM ([2]; 100 nM): 0%
inhibition at 1 µM ([2]; 1000 nM): 21%
inhibition at 0.01 µM ([3]; 10 nM): -11%
inhibition at 0.1 µM ([3]; 100 nM): 0%
inhibition at 1 µM ([3]; 1000 nM): 42%
inhibition at 0.01 µM ([4]; 10 nM): -12%
inhibition at 0.1 µM ([4]; 100 nM): -8%
inhibition at 1 µM ([4]; 1000 nM): -11%
inhibition at 0.01 µM ([5]; 10 nM): 2%
inhibition at 0.1 µM ([5]; 100 nM): 11%
inhibition at 1 µM ([5]; 1000 nM): 32%
inhibition at 0.01 µM ([6]; 10 nM): -11%
inhibition at 0.1 µM ([6]; 100 nM): 7%
inhibition at 1 µM ([6]; 1000 nM): -22%
inhibition at 0.01 µM ([7]; 10 nM): -18%
inhibition at 0.1 µM ([7]; 100 nM): -11%
inhibition at 1 µM ([7]; 1000 nM): 3%
inhibition at 0.01 µM ([8]; 10 nM): -18%
inhibition at 0.1 µM ([8]; 100 nM): 16%
inhibition at 1 µM ([8]; 1000 nM): 88%
inhibition at 0.01 µM ([9]; 10 nM): -1%
inhibition at 0.1 µM ([9]; 100 nM): -13%
inhibition at 1 µM ([9]; 1000 nM): 6%
inhibition at 0.01 µM ([10]; 10 nM): -3%
inhibition at 0.1 µM ([10]; 100 nM): -7%
inhibition at 1 µM ([10]; 1000 nM): -4%
inhibition at 0.01 µM ([11]; 10 nM): -6%
inhibition at 0.1 µM ([11]; 100 nM): 2%
inhibition at 1 µM ([11]; 1000 nM): -4%
